Measured values reported in PMC4434572, “Identification of novel drugs to target dormant micrometastases” (BMC Cancer, 2015).
Read-outs that look alike come from different tables or passages of the source.

Test system: cancer cells on SISgel or plastic
Assay: Activity of leads and analogs on cancer cells grown on plastic vs SISgel (cell line not stated)
Type: cell-based
Details: for SR: ratio IC50-p/IC50-S; for Hit: YES/NO
Protocol: The NCI library is no longer available in the form used here, but how it was constructed is described (http://dtp.nci.nih.gov/branches/dscb/diversity_explanation.html). The ChemBridge library is a subset (Set Code NM1024) of the full 50,000 compound library (http://www.chembridge.com/screening_libraries/diversity_libraries/). Compounds were diluted to 100 μM before use. SISgel was prepared as described previously from powdered porcine small intestine submucosa obtained from Cook Biotech (W. Lafayette, IN). It is a natural product that is used extensively in tissue engineering as a bioscaffold. J82 bladder cancer cells and other cell lines were obtained from the ATCC (Bethesda, MD). […] Efficacy in vitro was assessed by plating 30,000 cells in 50 μL of high glucose DMEM with penicillin-streptomycin and 10 % fetal calf serum on SISgel in a 96-well plate containing 50 μL of gelled SISgel per well. Cells were allowed to attach and assume the SISgel phenotype for 48 h. A matching plate without SISgel was prepared 24 h later by pipetting 3,000 cells in 100 μL of high glucose DMEM with penicillin-streptomycin and 10 % fetal calf serum into each well of 96 well plate. The cells were allowed to attach and grow for 24 h. […] The cells were exposed to drug in fresh medium for 48 h, at which time the cell number was determined using the CFDA-AM cellular esterase proliferation assay (cat. #C1354, Life Technologies). For screening the results are reported as the ratio of cell count of cells on the plastic surface to the cell count on SISgel. An initial difference of 1.5 fold identified potential hits. All potential hits were confirmed in triplicate. […] Data were analyzed using nonlinear regression to a sigmoid curve with Prism 4 (GraphPad Software, Inc., LaJolla, CA). […]

[1] = cells on SISgel, read-out: IC50-S
[2] = cells on plastic, read-out: IC50-p

| IC50 [1] [µM] | IC50 [2] [µM] | Structure (SMILES) | SR | Hit |
| --- | --- | --- | --- | --- |
| 621 | 414 | CCN(Cc1cccc(S(=O)(=O)[O-])c1)c1ccc(C(=C2C=CC(=[N+](CC)Cc3cccc(S(=O)(=O)[O-])c3)C=C2)c2ccccc2Cl)cc1.[Na+] [Alizarin Green] | 0.67 | – |
| 111 | 146 | Cc1cc(C)c(N=Nc2c(O)c(S(=O)(=O)[O-])cc3cc(S(=O)(=O)[O-])ccc23)cc1C.[Na+].[Na+] [Ponceau 3R] | 1.3 | – |
| 70 | 74 | Nc1cc(S(=O)(=O)[O-])cc2cc(S(=O)(=O)[O-])c(N=Nc3cc([N+](=O)[O-])ccc3O)c(O)c12.[Na+].[Na+] [Palatine Chrome Green] | 1.1 | – |
| 400 | 114 | O=S(=O)([O-])c1ccc(N=Nc2c(O)ccc3ccccc23)cc1.[Na+] [Acid Orange 7] | 0.29 | – |
| 24 | 53 | COc1ccccc1N=Nc1c(S(=O)(=O)[O-])cc2cc(S(=O)(=O)[O-])cc(NC(C)=O)c2c1O.[Na+].[Na+] [Pontacyl Carmine 2B] | 2.2 | YES |
| 604 | 154 | Cc1ccc(N=Nc2c(O)c(S(=O)(=O)[O-])cc3cc(S(=O)(=O)[O-])ccc23)c(C)c1.[Na+].[Na+] [Acid Red 26] | 0.26 | – |
| 293 | 419 | Cc1nc(N=Nc2ccc(S(=O)(=O)O)cc2S(=O)(=O)O)c(COP(=O)(O)O)c(C=O)c1O [PPADS] | 1.4 | – |
| 72 | 146 | O=S(=O)([O-])c1cc2cc(S(=O)(=O)O)ccc2c(N=Nc2c(O)cc(S(=O)(=O)[O-])c3ccccc23)c1O.[Na+].[Na+] [Hydroxy Naphthol Blue] | 2.0 | YES |
| 315 | 631 | CCN(Cc1cccc(S(=O)(=O)[O-])c1)c1ccc(C(=C2C=CC(=[N+](CC)Cc3cccc(S(=O)(=O)[O-])c3)C=C2)c2ccc(S(=O)(=O)[O-])cc2)cc1.[Na+].[Na+] [Light Green SF Yellowish] | 2 | – |
| 34 | 71 | CC(=O)Nc1ccc(N=Nc2c(S(=O)(=O)[O-])cc3cc(S(=O)(=O)[O-])cc(O)c3c2O)cc1.[Na+].[Na+] [Chromotrope 6B] | 2.1 | YES |
| 94 | 92 | O=S(=O)([O-])c1cc(O)c2c(O)c(N=Nc3ccccc3)c(S(=O)(=O)[O-])cc2c1.[Na+].[Na+] [Chromotrope 2R] | 0.98 | – |
| 57 | 77 | O=S(=O)([O-])c1cc(Nc2nc(Cl)nc(Cl)n2)c2c(O)c(N=Nc3ccccc3)c(S(=O)(=O)[O-])cc2c1.[Na+].[Na+] [Procion Red Mx - 5B] | 1.4 | – |
| 33 | 94 | O=S(=O)([O-])c1cc(O)c2c(N=Nc3c(S(=O)(=O)[O-])cc4cc(S(=O)(=O)[O-])cc(O)c4c3O)cc(S(=O)(=O)[O-])cc2c1.[Na+].[Na+].[Na+].[Na+] [Beryllon II] | 3 | YES |
| 26 | 33 | O=S(=O)([O-])c1ccc2c(N=Nc3ccc(S(=O)(=O)[O-])c4ccccc34)c(O)c(S(=O)(=O)[O-])cc2c1.[Na+].[Na+].[Na+] [Amaranthe] | 1.3 | – |
| 64 | 135 | O=S(=O)([O-])c1ccc2c(N=Nc3c(O)cc(S(=O)(=O)[O-])c4ccccc34)c(O)c(S(=O)(=O)[O-])cc2c1.[Na+].[Na+].[Na+] [HydroxyNapthol Blue] | 2.1 | YES |
| 40 | 71 | O=[N+]([O-])c1ccc(N=Nc2c(S(=O)(=O)[O-])cc3cc(S(=O)(=O)[O-])cc(O)c3c2O)cc1.[Na+].[Na+] [Chromotrope 2B] | 1.8 | YES |
